Measured values taken from patent US12514931B2, “Microsphere-drug combination” (UCL Business LTD, priority 2019, dated 2026).
Values belong to the compound of their own block, whether it stands above or below them.

Assays:
[1] = Loading of taxanes onto PLGA TIPS microspheres via antisolvent precipitation (drug loading efficiency, UV 229 nm); assay type: physicochemical; settings: for taxane loaded onto the microspheres from the solution: 0.1% (w/v) pure taxane in ethanol, 5 mg dry PLGA TIPS microspheres, within 60 minutes of initiating mixing
Procedure: A facile method was developed to load DTX and other taxanes such as paclitaxel and cabazitaxel onto TIPS microspheres via antisolvent precipitation (FIG. 1). 5 mg of PLGA TIPS microspheres were transferred into 20 ml clear Type 1B boroscilicate glass vials and sealed with a butyl injection stopper. 4.5 mL of ultrapure water was added to the vial and vortexed for 10 seconds. 0.5 ml of 0.1% (w/v) taxane in ethanol, or a formulation of docetaxel or paclitaxel matching Taxotere® or Taxol® was added using a 1 mL syringe with a 25G needle through the rubber stopper, when the vial was inverted. The vial was then vortexed for 10 seconds and placed on a roller mixer (IKA® Roller 6 Digital; 60 rpm) at room temperature for predetermined periods (5, 15, 30, 60, 120 minutes).
Drug loading efficiency (DLE) of the taxane, such as DTX, onto the TIPS microspheres at each time-point was calculated according to Equation 1. The amount of free taxane left in the solution was measured by UV spectroscopy at the wavelength of 229 nm using a Nanodrop 2000c spectrophotometer (Thermo Scientific, Waltham, MA, USA).
• 1. Dry TIPS PLGA microspheres (size range of 250-350 μm): Docetaxel loaded onto 5 mg PLGA TIPS microspheres as described directly above. […] An equivalent number of solid PLGA microspheres (size range of 250-350 μm) to the quantity of microspheres in 5 mg of dry TIPS PLGA microspheres were transferred into 20 ml clear Type 1B boroscilicate glass vials and sealed with a butyl injection stopper. […] Drug loading efficiency (DLE) of docetaxel (DTX) onto the TIPS microspheres at each time-point was calculated according to Equation 1. The amount of free docetaxel left in the solution was measured by UV spectroscopy at the wavelength of 229 nm using a Nanodrop 2000c spectrophotometer (Thermo Scientific, Waltham, MA, USA). […]

[2] = Docetaxel release from DTX-TIPS microspheres in dynamic perfusion system; assay type: physicochemical; settings: PBS pH 7.4, 37 C, 0.01 mL/min; over 5 days
Procedure: Release profile of DTX from the TIPS microspheres was investigated using a dynamic perfusion system to simulate tissue perfusion of the drug-device combination in the physiological milieu when used in clinic following radical prostatectomy. Thus, the perfusion system was placed inside an incubator at 37° C. and physiological simulated medium (phosphate buffed saline (PBS); pH 7.4) was used as perfusate. DTX-loaded microspheres were mixed with 100 μl of 70% (v/v) GranuGel® (Convatec, UK) diluted in ultrapure water and the mixture was placed between two 25 mm circular filter papers (Whatman® qualitative cellulose filter paper, Grade 1), where their positions were held by a Swin-Lok™ plastic membrane filter holder. A hypodermic needle (18G×40 mm) connecting the outlet of the filter holder, was inserted through the lid of a 50 ml polypropylene container to collect the perfusate. PBS was pumped through the filter holder by a peristaltic pump (Harvard Apparatus) at a flow rate of 0.01 mL/min. […]
The amount of DTX released in the perfusate was determined using a predetermined standard curve. At each measurement, the concentration of DTX in the release medium collected in the polypropylene container was determined by UV spectroscopy at 229 nm as described above, to calculate the cumulative DTX release according to Equation 2.

[3] = DTX concentration in tissues from explanted organs (LC-MS/MS); assay type: in vivo, NSG mice; settings: NSG, mouse, intravenous, 10 mg/kg; for concentration at 1 day: day 1 post-administration; for concentration at 10 day: day 10 post-administration; for concentration at 35 day: day 35 post-administration
Procedure: At the end of the in-life phase (day 1, 10 and 35 post-treatment) the mice were euthanised by overdose of CO2, followed by cervical dislocation and organs (heart, liver, kidneys, lungs and spleen) were collected, weighed and immediately frozen in liquid nitrogen before storage at −80° C. until further analysis. Evaluation of docetaxel concentrations was carried out by liquid chromatography tandem mass spectrometry in tissue following homogenisation in 3 ml/g (spleens 5 ml/g) 10 mM PBS using a Precellys 24 homogeniser (Bertin technologies, Montigny-le-Bretonneux, France). 45 μl tissue homogenate was spiked with 5 μl DMSO, samples were mixed and protein precipitated with 150 μl acetonitrile containing DTX-D9 as internal standard (25 nM). Samples were mixed and centrifuged. Supernatant was taken and diluted 40:60 with 0.5% sodium acetate (20 μM) in ammonium acetate (10 mM, pH 5). Blanks, calibration curve and QCs were prepared as above using tissues obtained from the same strain of mice (NSG) and spiked with DMSO, working calibration standard and working QC respectively. Blanks consisted of protein precipitated with acetonitrile alone, blank+, standards and QCs were protein precipitated with acetonitrile containing DTX-D9.

[4] = tested on: PC3 xenograft tumour; assay: In vivo tumour growth inhibitory activity, PC3 xenograft; design: species or system NSG immunodeficient mice
Procedure: Female NSG™ immunodeficient mice (NOD.Cg-PrkdscidIl2rgtm1Wjl/SzJ; Charles River), aged 6-7 weeks and 18-20 g in body weight, were acclimatised for 1 week prior to injection of tumour cells. PC3 cells (5.0×10^6 cells in 100 μl phosphate buffered saline [PBS]) were injected subcutaneously into the right flank of each mouse. The dimensions of tumour were measured three times per week using digital callipers and the tumour volume calculated using the following formula: […]

[5] = Measurement of DTX in plasma after administration (LC-MS/MS); assay type: in vivo, BALB/cAnNCrl mice
Procedure: Docetaxel-loaded TIPS microspheres were prepared via anti-solvent precipitation, as outlined above. […] For measurement of circulating DTX in plasma, blood samples were collected via the tail vein at day 0 (pre-dose), and days 1, 2, 3, 7, 10 then every 5 days until day 35 immediately before the end of in life phase. Blood samples were collected into 10 μl capillaries containing sodium heparin (Hirschmann, Eberstadt, Germany) and placed in wells of a 2 ml deep well plate that was stored at −80° C. until extraction.
On the day of the extraction, calibration curve and sample plates were thawed. 125 μl of water:acetonitrile containing 0.4% […] was added to blanks, calibration curve and QCs. 125 μl of 70:30 water:acetonitrile containing 0.4% DMSO was added to all samples. 40 μl of each […]:water:acetonitrile sample was taken and protein precipitated with 120 μl acetonitrile containing DTX-D9 (25 nM). Samples were mixed and centrifuged. Supernatant was taken and diluted 40:60 with 0.5% sodium acetate (20 μM) in ammonium acetate (10 mM, pH5).
Liquid chromatography-mass spectrometry analysis was carried out with a Waters (Milford, MA) H-class Acquity solvent manager and sample manager on a Waters Acquity HSS PFP column (1.8 μm, 50 mm×2.1 mm id) with a gradient consisting of 10 mM ammonium acetate (pH 5.0) and acetonitrile mobile phases. The flow rate was 0.6 ml/min and the run time 5.6 minutes. Analyte and internal standard were ionised using electrospray ionisation in positive ion mode. Detection of analytes was via tandem mass spectrometry (MS/MS) using a Waters Xevo TQ-S mass spectrometer in the multiple reaction monitoring (MRM) mode. For DTX and DTX-D9 (IS), the transitions m/z 830.4-248.1/304.2 and m/z 839.4-313.0 were monitored respectively. The calibration curve was linear over the concentration range […].

[6] = tested on: PC3 cells; assay: Colony formation assay with perfusate from DTX-TIPS microspheres; assay type: cell-based, human; settings: DTX released into perfusate during the first 5 days
Procedure: PC3 cells were maintained in Ham's F12-K medium (Kaighn's modification) (Invitrogen, 21127-022) supplemented with 10% (v/v) foetal bovine serum (FBS) and 1% antibiotics (referred to henceforth as complete medium). Cells were cultured at 37° C. under 5% CO2 atmosphere in a humidified incubator.
PC3 cells cultured in 6 well plates were incubated for 48 hours in 2 ml of perfusate (conditioned complete culture medium) collected from DTX-TIPS microspheres loaded into the perfusion system, as outlined above. Colony formation assays were performed as previously described (Franken NAP, Rodermond HM, Stap J, Haveman J, van Bree C. Clonogenic assay of cells in vitro. Nat Protoc. 2006; 1(5):2315-2319). […] The colonies were counted in ImageJ using the ‘Colony Counter’ plug in (processing parameters: size 100-30,000; circularity 0.5-1) (https://imagej.nih.gov/ij/plugins/colony-counter.html).
Plating efficiency (PE) was estimated by dividing the number of colonies counted by the number of cells initially seeded. […]

taxane loaded onto the microspheres from the solution [1]: about 60%
SMILES: CO[C@H]1C(=O)[C@]2(C)[C@@H](OC)C[C@H]3OC[C@@]3(OC(C)=O)[C@H]2[C@H](OC(=O)c2ccccc2)[C@]2(O)C[C@H](OC(=O)[C@H](O)[C@@H](NC(=O)OC(C)(C)C)c3ccccc3)C(C)=C1C2(C)C [cabazitaxel]

taxane loaded onto the microspheres from the solution [1]: Approximately 80%
time of maximum loading onto the TIPS particles ([1]; room temperature, no heating or cooling steps): ≤ 60 min
cumulative release of total DTX loaded [2]: approximately 95%
concentration at 1 day ([3]; Heart): 340 ± 42.9 nM
concentration at 10 day ([3]; Heart): 90.1 ± 19.4 nM
concentration at 35 day ([3]; Heart): 0.97 ± 2.37 nM
concentration at 1 day ([3]; Kidney): 115 ± 22.4 nM
concentration at 10 day ([3]; Kidney): 115 ± 22.4 nM
concentration at 35 day ([3]; Kidney): 1.17 ± 2.86 nM
concentration at 1 day ([3]; Liver): 87.3 ± 7.85 nM
concentration at 10 day ([3]; Liver): 27 ± 11.9 nM
concentration at 35 day ([3]; Liver): 0 nM
concentration at 1 day ([3]; Lung): 641 ± 92.4 nM
concentration at 10 day ([3]; Lung): 256 ± 35.5 nM
concentration at 35 day ([3]; Lung): 13.8 ± 16.2 nM
concentration at 1 day ([3]; Spleen): 14.1 ± 11.9 nM
concentration at 10 day ([3]; Spleen): 35.3 ± 51.9 nM
concentration at 35 day ([3]; Spleen): 0 nM
plasma DTX level, I.V. DTX relative to DTX-TIPS group ([5]; 1 hour post-administration): 102 fold
plasma DTX level, I.V. DTX relative to DTX-TIPS group ([5]; 24 hour post-administration): 8 fold
SMILES: CC(=O)O[C@@]12CO[C@@H]1C[C@H](O)[C@@]1(C)C(=O)[C@H](O)C3=C(C)[C@@H](OC(=O)[C@H](O)[C@@H](NC(=O)OC(C)(C)C)c4ccccc4)C[C@@](O)([C@@H](OC(=O)c4ccccc4)[C@H]21)C3(C)C [docetaxel, Docetaxel]
tumour volume over the study period ([4]; Example 8, compared with saline or control microsphere group): Tumour growth inhibition was most apparent
tumour volume / tumour growth inhibition ([4]; Example 9, DTX-TIPS compared with I.V. DTX, until day 21): did not increase
DTX in plasma ([5]; 48 hours, 72 hours, day 10 and day 15, I.V. 10 mg/kg once weekly for three weeks): detectable levels of DTX remaining in the plasma
toxicity against the PC3 cells in the colony forming assay [6]: 100%
